“And” between values parts separate entries of the source, which are not always exact repeats. Identical values can stand only once. Values belong to the compound of their own block, whether it stands above or below them.
Key:
[1] = Retention of N-dodecyl-2-pyrrolidone (DDP) in formulations stored in various packaging materials, HPLC; format: physicochemical
Description: A material substantially lacking absorptive and adsorptive properties for a 5-(R1)-N-(R2)-2-pyrrolidone. A material substantially lacking absorptive and adsorptive properties for a 5-(R1)-N-(R2)-2-pyrrolidone is determined by packaging a 5-(R1)-N-(R2)-2-pyrrolidone-containing formulation in a bottle made from a test material, removing samples from the formulation at different storage times, and testing for the presence of the 2-pyrrolidone derivative. For example, presence of N-dodecyl-2-pyrrolidone (DDP) within a test sample is determined quantitatively using HPLC analysis as described in the examples provided infra.
The serotonergic formulation set forth in Table 1 was compounded in a glass bottle using techniques known to those skilled in the art. The formulation was tested for starting DDP concentration and then a volume was filled into different types of packaging materials as set forth in Table 2. The filled packages were then stored at the conditions indicated in Table 2, either room temperature or constant temperature ovens at 40° C. and 60° C. The thermal exposure testing was used to simulate the ability of container material to retain and deliver DDP in solution over a period of time or after prolonged increased thermal exposure. The tests were performed on duplicate containers to verify DDP concentration remaining in solution.
Concentration of DDP in each formulation was determined by chromatographic separation. The tests were performed on a WATERS ALLIANCE HPLC system with a CADENZA C18 column using a mobile phase consisting of 85% acetonitrile and 15% 1-octanesulfonic acid/water at room temperature. Absorbance was monitored at 220 nm, the known absorption wavelength of DDP. Linear range of detection for DDP was from 1.0 to 100.0 ppm. Retention time of DDP using this system is 8.3 minutes.
In further reference to Table 2, “Glass Vial” is a 1.5 mL clear borosilicate glass vial sealed with a TEFLON® lined septa and aluminum crimp seal (AGILENT HPLC vials part number 5182-0543). “White PETE” is a 60 mL cylindrical bottle made from polyethylene terephthalate (PETE) resin containing a white colorant, titanium dioxide (ALCON part number X04715). “Natural sPP” is a 4 mL oval bottle made from syndiotactic polypropylene (sPP) resin without colorant, i.e., natural (ALCON part number 281277). “Natural TEFLON®” is a 30 mL cylindrical bottle made from fluorinated ethylene propylene (TEFLON® FEP) polymer without colorant by NALGENE® (VWR part number 16071-008).
The serotonergic formulation set forth in Table 3 was compounded in the same manner as the Table 1 formulation. The test, the method of testing, and the packaging were as for the Table 1 formulation.
The formulation set forth in Table 5 was compounded in the same manner as the Table 1 formulation. The test, the method of testing, and the packaging were as for the Table 1 formulation.
The formulation set forth in Table 7 was compounded in the same manner as the Table 1 formulation. The test, the method of testing, and the packaging were as for the Table 1 formulation, except as indicated. “White LDPE” is an 8 mL cylindrical bottle made from low-density polyethylene (LDPE) with white colorant and is ALCON part number 277027. “Natural Polystyrene” is a 150 mL cylindrical bottle made of polystyrene polymer without colorant and is CORNING filter flask product 431153.

[2] = cited from earlier work

DDP concentration in formulation ([1]; Table 1 formulation, Glass Vial 1.5 mL Fill, 1 day @ 40° C.): 9.5 ppm and 9.6 ppm
DDP concentration in formulation ([1]; Table 1 formulation, Glass Vial 1.5 mL Fill, 1 day @ 60° C.): 10 ppm and 9.6 ppm
DDP concentration in formulation ([1]; Table 1 formulation, Glass Vial 1.5 mL Fill, 1 day @ RT): 9.2 ppm and 9.3 ppm
DDP concentration in formulation ([1]; Table 1 formulation, Glass Vial 1.5 mL Fill, 2 days @ 40° C.): 9.3, 9.3 ppm
DDP concentration in formulation ([1]; Table 1 formulation, Glass Vial 1.5 mL Fill, 2 days @ 60° C.): 9.4 ppm and 9.1 ppm
DDP concentration in formulation ([1]; Table 1 formulation, Glass Vial 1.5 mL Fill, 5 days @ 40° C.): 8.8 ppm and 9.1 ppm
DDP concentration in formulation ([1]; Table 1 formulation, Glass Vial 1.5 mL Fill, 5 days @ 60° C.): 8.9 ppm and 8.6 ppm
DDP concentration in formulation ([1]; Table 1 formulation, Glass Vial 1.5 mL Fill, 6 days @ RT): 9.0, 9.0 ppm
DDP concentration in formulation ([1]; Table 1 formulation, Natural TEFLON 10 mL Fill, 2 days @ 60° C.): 8.4 ppm
DDP concentration in formulation ([1]; Table 1 formulation, Natural TEFLON 10 mL Fill, 5 days @ 60° C.): 7.8 ppm
DDP concentration in formulation ([1]; Table 1 formulation, Natural sPP 4 mL Fill, 1 day @ 40° C.): 3.3 ppm and 3.4 ppm
DDP concentration in formulation ([1]; Table 1 formulation, Natural sPP 4 mL Fill, 1 day @ 60° C.): 1.3, 1.3 ppm
DDP concentration in formulation ([1]; Table 1 formulation, Natural sPP 4 mL Fill, 1 day @ RT): 6.1 ppm and 6.6 ppm
DDP concentration in formulation ([1]; Table 1 formulation, Natural sPP 4 mL Fill, 2 days @ 40° C.): 1.6 ppm and 1.7 ppm
DDP concentration in formulation ([1]; Table 1 formulation, Natural sPP 4 mL Fill, 2 days @ 60° C.): 1.2 ppm and 1.3 ppm
DDP concentration in formulation ([1]; Table 1 formulation, Natural sPP 4 mL Fill, 6 days @ RT): 4.0 ppm and 3.9 ppm
DDP concentration in formulation ([1]; Table 1 formulation, Start, before filling into packaging): 11,11 ppm and 11, 11 ppm
DDP concentration in formulation ([1]; Table 1 formulation, White PETE 10 mL Fill, 1 day @ 40° C.): 9.6 ppm and 9.3 ppm
DDP concentration in formulation ([1]; Table 1 formulation, White PETE 10 mL Fill, 1 day @ 60° C.): 8.1 ppm and 8.3 ppm
DDP concentration in formulation ([1]; Table 1 formulation, White PETE 10 mL Fill, 1 day @ RT): 9.8 ppm and 10 ppm
DDP concentration in formulation ([1]; Table 1 formulation, White PETE 10 mL Fill, 2 days @ 40° C.): 8.9 ppm and 9.4 ppm
DDP concentration in formulation ([1]; Table 1 formulation, White PETE 10 mL Fill, 2 days @ 60° C.): 7.4 ppm and 7.5 ppm
DDP concentration in formulation ([1]; Table 1 formulation, White PETE 10 mL Fill, 5 days @ 40° C.): 8.8 ppm and 9.3 ppm
DDP concentration in formulation ([1]; Table 1 formulation, White PETE 10 mL Fill, 5 days @ 60° C.): 6.1 ppm and 6.4 ppm
DDP concentration in formulation ([1]; Table 1 formulation, White PETE 10 mL Fill, 6 days @ RT): 9.1 ppm and 9.0 ppm
DDP concentration after thermal exposure (in words) ([1]; Table 1 formulation, sPP container, Tests 1, 2, and 3): drops significantly
DDP concentration in formulation ([1]; Table 3 formulation, Glass Vial 1.5 mL Fill, 1 day @ 40° C.): 20, 20 ppm
DDP concentration in formulation ([1]; Table 3 formulation, Glass Vial 1.5 mL Fill, 1 day @ 60° C.): 20, 20 ppm
DDP concentration in formulation ([1]; Table 3 formulation, Glass Vial 1.5 mL Fill, 1 day @ RT): 20, 20 ppm
DDP concentration in formulation ([1]; Table 3 formulation, Glass Vial 1.5 mL Fill, 2 days @ 40° C.): 19 ppm and 21 ppm
DDP concentration in formulation ([1]; Table 3 formulation, Glass Vial 1.5 mL Fill, 2 days @ 60° C.): 20 ppm and 19 ppm
DDP concentration in formulation ([1]; Table 3 formulation, Glass Vial 1.5 mL Fill, 5 days @ 40° C.): 20, 20 ppm
DDP concentration in formulation ([1]; Table 3 formulation, Glass Vial 1.5 mL Fill, 5 days @ 60° C.): 19, 19 ppm
DDP concentration in formulation ([1]; Table 3 formulation, Glass Vial 1.5 mL Fill, 6 days @ RT): 20, 20 ppm
DDP concentration in formulation ([1]; Table 3 formulation, Natural TEFLON 10 mL Fill, 2 days @ 60° C.): 19 ppm
DDP concentration in formulation ([1]; Table 3 formulation, Natural TEFLON 10 mL Fill, 5 days @ 60° C.): 19 ppm
DDP concentration in formulation ([1]; Table 3 formulation, Natural sPP 4 mL Fill, 1 day @ 40° C.): 13, 13 ppm
DDP concentration in formulation ([1]; Table 3 formulation, Natural sPP 4 mL Fill, 1 day @ 60° C.): 7.0, 7.0 ppm
DDP concentration in formulation ([1]; Table 3 formulation, Natural sPP 4 mL Fill, 1 day @ RT): 18, 18 ppm
DDP concentration in formulation ([1]; Table 3 formulation, Natural sPP 4 mL Fill, 2 days @ 40° C.): 10, 10 ppm
DDP concentration in formulation ([1]; Table 3 formulation, Natural sPP 4 mL Fill, 2 days @ 60° C.): 3.4 ppm and 3.2 ppm
DDP concentration in formulation ([1]; Table 3 formulation, Natural sPP 4 mL Fill, 5 days @ 40° C.): 6.1 ppm and 6.2 ppm
DDP concentration in formulation ([1]; Table 3 formulation, Natural sPP 4 mL Fill, 6 days @ RT): 15, 15 ppm
DDP concentration in formulation ([1]; Table 3 formulation, Start, before filling into packaging): 20, 20 ppm
DDP concentration in formulation ([1]; Table 3 formulation, White PETE 10 mL Fill, 1 day @ 40° C.): 20, 20 ppm
DDP concentration in formulation ([1]; Table 3 formulation, White PETE 10 mL Fill, 1 day @ 60° C.): 19 ppm and 20 ppm
DDP concentration in formulation ([1]; Table 3 formulation, White PETE 10 mL Fill, 1 day @ RT): 21 ppm and 20 ppm
DDP concentration in formulation ([1]; Table 3 formulation, White PETE 10 mL Fill, 2 days @ 40° C.): 20 ppm and 19 ppm
DDP concentration in formulation ([1]; Table 3 formulation, White PETE 10 mL Fill, 2 days @ 60° C.): 18 ppm and 19 ppm
DDP concentration in formulation ([1]; Table 3 formulation, White PETE 10 mL Fill, 5 days @ 40° C.): 20, 20 ppm
DDP concentration in formulation ([1]; Table 3 formulation, White PETE 10 mL Fill, 5 days @ 60° C.): 17 ppm and 18 ppm
DDP concentration in formulation ([1]; Table 3 formulation, White PETE 10 mL Fill, 6 days @ RT): 19 ppm and 20 ppm
available DDP in the contained solution (in words) ([1]; Table 3 formulation, sPP packaging relative to Glass Vial, PETE, and TEFLON, Tests 4, 5, and 6): significant reduction
DDP concentration in formulation ([1]; Table 5 formulation, Glass Vial 1.5 mL Fill, 1 day @ 40° C.): 9.0 ppm and 8.9 ppm
DDP concentration in formulation ([1]; Table 5 formulation, Glass Vial 1.5 mL Fill, 1 day @ RT): 8.7 ppm and 8.6 ppm
DDP concentration in formulation ([1]; Table 5 formulation, Glass Vial 1.5 mL Fill, 2 days @ 40° C.): 8.6 ppm and 8.2 ppm
DDP concentration in formulation ([1]; Table 5 formulation, Glass Vial 1.5 mL Fill, 6 days @ RT): 8.4 ppm and 8.2 ppm
DDP concentration in formulation ([1]; Table 5 formulation, Natural sPP 4 mL Fill, 1 day @ 40° C.): 0.3, 0.3 ppm
DDP concentration in formulation ([1]; Table 5 formulation, Natural sPP 4 mL Fill, 1 day @ RT): 1.1, 1.1 ppm
DDP concentration in formulation ([1]; Table 5 formulation, Start, before filling into packaging): 8.0, 8.0 ppm
DDP concentration in formulation ([1]; Table 5 formulation, White PETE 10 mL Fill, 1 day @ 40° C.): 5.5 ppm and 5.0 ppm
DDP concentration in formulation ([1]; Table 5 formulation, White PETE 10 mL Fill, 1 day @ RT): 6.3 ppm and 6.4 ppm
DDP concentration in formulation ([1]; Table 5 formulation, White PETE 10 mL Fill, 2 days @ 40° C.): 4.6 ppm and 4.5 ppm
DDP concentration in formulation ([1]; Table 5 formulation, White PETE 10 mL Fill, 6 days @ RT): 6.5 ppm and 6.4 ppm
available DDP in the contained solution (in words) ([1]; Table 5 formulation, sPP packaging relative to Glass Vial and PETE, Tests 7, 8, and 9): significant reduction
loss of DDP from the formulation (in words) ([1]; Table 7 formulation, White LDPE container, Tests 10, 11, and 12): even more severe than the sPP container
SMILES: CCCCCCCCCCCCN1CCCC1=O [DDP, N-dodecyl-2-pyrrolidone]
retaining DDP in the formulation (in words) ([1]; Table 7 formulation, Natural Polystyrene container, Tests 10, 11, and 12): essentially equivalent to the PETE container
loss of DDP from the formulation (in words) ([1]; Table 7 formulation, sPP container, Tests 10, 11, and 12): much greater than that of the Glass Vial or PETE containers
solubility in water [2]: up to 0.002%

SMILES: CCCCCCCCN1CCCC1=O [N-octyl-2-pyrrolidone]
solubility in water [2]: up to 0.124%
